# In ChEMBL document CHEMBL3352739, “Comparative in vivo evaluation of polyalkoxy substituted 4H-chromenes and oxa-podophyllotoxins as microtubule destabilizing agents in the phenotypic sea urchin embryo assay” (2014):
# Experiments:
# [1] = Growth inhibition of human HCC2998 cells after 48 hrs by sulforhodamine B assay; format: functional; details: HCC 2998, 48 h
# U-251 = assay: Growth inhibition of human U251 cells after 48 hrs by sulforhodamine B assay; format: functional; details: U-251, 48 h
# HOP-62 = assay: Growth inhibition of human HOP62 cells after 48 hrs by sulforhodamine B assay; format: functional; details: HOP-62, 48 h
# [2] = Growth inhibition of human COLO205 cells after 48 hrs by sulforhodamine B assay; format: functional; details: COLO 205, 48 h
# [3] = Growth inhibition of human OVCAR3 cells after 48 hrs by sulforhodamine B assay; format: functional; details: OVCAR-3, 48 h
# [4] = Growth inhibition of human SF539 cells after 48 hrs by sulforhodamine B assay; format: functional; details: SF-539, 48 h
# [5] = Cytotoxicity against human NCI60 cells; format: functional
# SF-268 = assay: Growth inhibition of human SF268 cells after 48 hrs by sulforhodamine B assay; format: functional; details: SF-268, 48 h
# SR = assay: Growth inhibition of human SR cells after 48 hrs by sulforhodamine B assay; format: functional
# MDA-MB-231 = assay: Growth inhibition of human MDA-MB-231 cells after 48 hrs by sulforhodamine B assay; format: functional; details: MDA-MB-231, 48 h
# 786-0 = assay: Growth inhibition of human 786-0 cells after 48 hrs by sulforhodamine B assay; format: functional; details: 786-0, 48 h
# [6] = Growth inhibition of human RPMI8226 cells after 48 hrs by sulforhodamine B assay; format: functional; details: RPMI-8226, 48 h
# M14 = assay: Growth inhibition of human M14 cells after 48 hrs by sulforhodamine B assay; format: functional; details: M14, 48 h
# [7] = Growth inhibition of human BT549 cells after 48 hrs by sulforhodamine B assay; format: functional; details: BT-549, 48 h
# [8] = Growth inhibition of human OVCAR8 cells after 48 hrs by sulforhodamine B assay; format: functional; details: OVCAR-8, 48 h
# A498 = assay: Growth inhibition of human A498 cells after 48 hrs by sulforhodamine B assay; format: functional; details: A498, 48 h
# NCI-H460 = assay: Growth inhibition of human NCI-H460 cells after 48 hrs by sulforhodamine B assay; format: functional; details: NCI-H460, 48 h
# IGROV-1 = assay: Growth inhibition of human IGROV1 cells after 48 hrs by sulforhodamine B assay; format: functional; details: IGROV-1, 48 h
# MCF7 = assay: Growth inhibition of human MCF7 cells after 48 hrs by sulforhodamine B assay; format: functional; details: MCF7, 48 h
# [9] = Growth inhibition of human H1299 cells after 48 hrs by sulforhodamine B assay; format: functional; details: NCI-H1299, 48 h
# ACHN = assay: Growth inhibition of human ACHN cells after 48 hrs by sulforhodamine B assay; format: functional
# [10] = Growth inhibition of human MOLT4 cells after 48 hrs by sulforhodamine B assay; format: functional; details: MOLT-4, 48 h
# [11] = Growth inhibition of human Hs 578T cells after 48 hrs by sulforhodamine B assay; format: functional
# SK-OV-3 = assay: Growth inhibition of human SKOV3 cells after 48 hrs by sulforhodamine B assay; format: functional; details: SK-OV-3, 48 h
# HT-29 = assay: Growth inhibition of human HT-29 cells after 48 hrs by sulforhodamine B assay; format: functional; details: HT-29, 48 h
# A549 = assay: Growth inhibition of human A549/ATCC cells after 48 hrs by sulforhodamine B assay; format: functional; details: A549, 48 h
# SW-620 = assay: Growth inhibition of human SW620 cells after 48 hrs by sulforhodamine B assay; format: functional; details: SW-620, 48 h
# [12] = Growth inhibition of human LOXIMVI cells after 48 hrs by sulforhodamine B assay; format: functional; details: LOX IMVI
# Paracentrotus lividus [13] = assay: Antimitotic microtubule destabilizing activity in Paracentrotus lividus L embryos assessed as induction of embryo spinning
# Paracentrotus lividus [14] = assay: Antimitotic microtubule destabilizing activity in Paracentrotus lividus L embryos assessed as induction of cleavage alteration
# [15] = Growth inhibition of human OVCAR4 cells after 48 hrs by sulforhodamine B assay; format: functional; details: OVCAR-4, 48 h
# SNB-19 = assay: Growth inhibition of human SNB19 cells after 48 hrs by sulforhodamine B assay; format: functional; details: SNB-19, 48 h
# [16] = Growth inhibition of human EKVX cells after 48 hrs by sulforhodamine B assay; format: functional
# DU-145 = assay: Growth inhibition of human DU145 cells after 48 hrs by sulforhodamine B assay; format: functional; details: DU-145, 48 h
# Paracentrotus lividus [17] = assay: Antimitotic microtubule destabilizing activity in Paracentrotus lividus L embryos assessed as induction of cleavage arrest
# [18] = Growth inhibition of human HCT116 cells after 48 hrs by sulforhodamine B assay; format: functional; details: HCT-116, 48 h
# NCI-H522 = assay: Growth inhibition of human NCI-H522 cells after 48 hrs by sulforhodamine B assay; format: functional; details: NCI-H522, 48 h
# T47D = assay: Growth inhibition of human T47D cells after 48 hrs by sulforhodamine B assay; format: functional
# SNB-75 = assay: Growth inhibition of human SNB75 cells after 48 hrs by sulforhodamine B assay; format: functional; details: SNB-75, 48 h
# CAKI-1 = assay: Growth inhibition of human CAKI-1 cells after 48 hrs by sulforhodamine B assay; format: functional; details: CAKI-1, 48 h
# [19] = Growth inhibition of human NCI-ADR-RES cells after 48 hrs by sulforhodamine B assay; format: functional
# SK-MEL-5 = assay: Growth inhibition of human SK-MEL-5 cells after 48 hrs by sulforhodamine B assay; format: functional; details: SK-MEL-5, 48 h
# [20] = Growth inhibition of human UACC257 cells after 48 hrs by sulforhodamine B assay; format: functional; details: UACC-257, 48 h
# NCI-H322M = assay: Growth inhibition of human NCI-H322M cells after 48 hrs by sulforhodamine B assay; format: functional
# [21] = Growth inhibition of human UACC62 cells after 48 hrs by sulforhodamine B assay; format: functional; details: UACC-62, 48 h
# [22] = Growth inhibition of human SF295 cells after 48 hrs by sulforhodamine B assay; format: functional; details: SF-295, 48 h
# [23] = Growth inhibition of human HOP92 cells after 48 hrs by sulforhodamine B assay; format: functional; details: HOP-92, 48 h
# KM12 = assay: Growth inhibition of human KM12 cells after 48 hrs by sulforhodamine B assay; format: functional; details: KM12, 48 h
# K562 = assay: Growth inhibition of human K562 cells after 48 hrs by sulforhodamine B assay; format: functional; details: K562, 48 h
# [24] = Growth inhibition of human HCT15 cells after 48 hrs by sulforhodamine B assay; format: functional; details: HCT-15, 48 h
# MDA-MB-468 = assay: Growth inhibition of human MDA-MB-468 cells after 48 hrs by sulforhodamine B assay; format: functional; details: MDA-MB-468, 48 h
# NCI-H23 = assay: Growth inhibition of human NCI-H23 cells after 48 hrs by sulforhodamine B assay; format: functional; details: NCI-H23, 48 h
# [25] = Growth inhibition of human UO31 cells after 48 hrs by sulforhodamine B assay; format: functional; details: UO-31, 48 h
# [26] = Growth inhibition of human RXF393 cells after 48 hrs by sulforhodamine B assay; format: functional; details: RXF 393, 48 h
# [27] = Growth inhibition of human PC3 cells after 48 hrs by sulforhodamine B assay; format: functional; details: PC-3, 48 h
# NCI-H226 = assay: Growth inhibition of human NCI-H226 cells after 48 hrs by sulforhodamine B assay; format: functional; details: NCI-H226, 48 h
# SN12C = assay: Growth inhibition of human SN12C cells after 48 hrs by sulforhodamine B assay; format: functional
# HL-60(TB) = assay: Growth inhibition of human HL-60(TB) cells after 48 hrs by sulforhodamine B assay; format: functional; details: HL-60, 48 h
# SK-MEL-2 = assay: Growth inhibition of human SK-MEL-2 cells after 48 hrs by sulforhodamine B assay; format: functional; details: SK-MEL-2, 48 h
# MDA-MB-435 = assay: Growth inhibition of human MDA-MB-435 cells after 48 hrs by sulforhodamine B assay; format: functional; details: MDA-MB-435, 48 h
# CCRF-CEM = assay: Growth inhibition of human CCRF-CEM cells after 48 hrs by sulforhodamine B assay; format: functional
# [28] = Growth inhibition of human OVCAR5 cells after 48 hrs by sulforhodamine B assay; format: functional; details: OVCAR-5, 48 h
# TK-10 = assay: Growth inhibition of human TK10 cells after 48 hrs by sulforhodamine B assay; format: functional; details: TK-10, 48 h
# SK-MEL-28 = assay: Growth inhibition of human SK-MEL-28 cells after 48 hrs by sulforhodamine B assay; format: functional; details: SK-MEL-28, 48 h
smiles,measurement,setting,value
COc1ccc2c(c1)OC(N)=C(C#N)C2c1cc(OC)c(OC)c(OC)c1 (racemic),GI50,[1],28.2 nM
same,GI50,U-251,26.2 nM
same,GI50,HOP-62,62.6 nM
same,GI50,[2],28.1 nM
same,GI50,[3],25.8 nM
same,GI50,[4],33.5 nM
same,GI50,[5],45 nM
same,GI50,SF-268,73.2 nM
same,GI50,SR,27.1 nM
same,GI50,MDA-MB-231,38.1 nM
same,GI50,786-0,49.4 nM
same,GI50,[6],37.9 nM
same,GI50,M14,25.5 nM
same,GI50,[7],25 nM
same,GI50,[8],34.5 nM
same,GI50,A498,20.9 nM
same,GI50,NCI-H460,34.4 nM
same,GI50,IGROV-1,42.5 nM
same,GI50,MCF7,34.2 nM
same,GI50,[9],45 nM
same,GI50,ACHN,76 nM
same,GI50,[10],37 nM
same,GI50,[11],49 nM
same,GI50,SK-OV-3,33 nM
same,GI50,HT-29,27.8 nM
same,GI50,A549,37.6 nM
same,GI50,SW-620,38.8 nM
same,GI50,[12],34 nM
same,EC,Paracentrotus lividus [13],0.5 µM
same,EC,Paracentrotus lividus [14],0.01 µM
same,GI50,[15],80.8 nM
same,GI50,SNB-19,86.4 nM
same,GI50,[16],251 nM
same,GI50,DU-145,25.2 nM
same,EC,Paracentrotus lividus [17],0.05 µM
same,GI50,[18],30.6 nM
same,GI50,NCI-H522,12.3 nM
same,GI50,T47D,> 100000 nM
same,GI50,SNB-75,42.9 nM
same,GI50,CAKI-1,146 nM
same,GI50,[19],19.9 nM
same,GI50,SK-MEL-5,24 nM
same,GI50,[20],37.1 nM
same,GI50,NCI-H322M,48 nM
same,GI50,[21],37.9 nM
same,GI50,[22],25.2 nM
same,GI50,[23],20.7 nM
same,GI50,KM12,25.1 nM
same,GI50,K562,34.3 nM
same,GI50,[24],32.8 nM
same,GI50,MDA-MB-468,21.6 nM
same,GI50,NCI-H23,36.5 nM
same,GI50,[25],1570 nM
same,GI50,[26],25.9 nM
same,GI50,[27],42.8 nM
same,GI50,NCI-H226,83.9 nM
same,GI50,SN12C,58.7 nM
same,GI50,HL-60(TB),25.6 nM
same,GI50,SK-MEL-2,27.6 nM
same,GI50,MDA-MB-435,15 nM
same,GI50,CCRF-CEM,33.7 nM
COc1cc(C2C(C#N)=C(N)Oc3cc(O)ccc32)cc(OC)c1OC (configuration not stated),GI50,[1],975 nM
same,GI50,[28],4520 nM
same,GI50,U-251,349 nM
same,GI50,HOP-62,796 nM
same,GI50,[2],852 nM
same,GI50,[3],338 nM
same,GI50,[4],347 nM
same,GI50,[5],692 nM
same,GI50,SF-268,14500 nM
same,GI50,SR,371 nM
same,GI50,MDA-MB-231,927 nM
same,GI50,786-0,605 nM
same,GI50,[6],691 nM
same,GI50,M14,375 nM
same,GI50,[7],386 nM
same,GI50,[8],836 nM
same,GI50,A498,161 nM
same,GI50,NCI-H460,374 nM
same,GI50,TK-10,9830 nM
same,GI50,IGROV-1,2840 nM
same,GI50,MCF7,324 nM
same,GI50,ACHN,922 nM
same,GI50,[10],652 nM
same,GI50,[11],463 nM
same,GI50,SK-OV-3,560 nM
same,GI50,HT-29,392 nM
same,GI50,A549,638 nM
same,GI50,SW-620,347 nM
same,GI50,[12],523 nM
same,EC,Paracentrotus lividus [13],> 4 µM
same,EC,Paracentrotus lividus [14],4 µM
same,GI50,SK-MEL-28,934 nM
same,GI50,[15],3490 nM
same,GI50,SNB-19,811 nM
same,GI50,[16],6490 nM
same,GI50,DU-145,637 nM
same,EC,Paracentrotus lividus [17],> 4 µM
same,GI50,[18],453 nM
same,GI50,NCI-H522,255 nM
same,GI50,SNB-75,271 nM
same,GI50,CAKI-1,885 nM
same,GI50,[19],2320 nM
same,GI50,SK-MEL-5,305 nM
same,GI50,NCI-H322M,783 nM
same,GI50,[21],358 nM
same,GI50,[22],323 nM
same,GI50,[23],301 nM
same,GI50,KM12,451 nM
same,GI50,K562,460 nM
same,GI50,[24],513 nM
same,GI50,MDA-MB-468,250 nM
same,GI50,NCI-H23,813 nM
same,GI50,[25],2800 nM
same,GI50,[26],287 nM
same,GI50,[27],462 nM
same,GI50,NCI-H226,31200 nM
same,GI50,SN12C,790 nM
same,GI50,HL-60(TB),327 nM
same,GI50,SK-MEL-2,539 nM
same,GI50,MDA-MB-435,136 nM
same,GI50,CCRF-CEM,375 nM
